{
  "source": "patent US10800742B2",
  "about": "“Small molecule compounds targeting PBX1 transcriptional complex” (THE JOHNS HOPKINS UNIVERSITY, priority 2015, dated 2020)",
  "tested_on": "SKOV3 carboplatin-resistant cancers",
  "experiment": "SKOV3CRLuc subcutaneous xenograft",
  "type": "in vivo, athymic nu/nu mice",
  "conditions": "platinum-resistant mouse tumor model",
  "experimental": "[MUT] and SKOV3CRLuc cells were injected subcutaneously into the athymic nu/nu mice (3×10^6, n=8 for each group). Parental SKOV3Luc cells were used as a negative control. Mice were intraperitoneally (i.p.) injected with [MUT] (red, 2.5 mg/kg/injection) or DMSO (red arrows) using a 3 days-on 4-days off protocol. Carboplatin (30 mg/kg/injection) was administrated i.p. every other day (green arrows). (B) Tumor volume was measured every other day for 25 to 40 days using a caliper, and luminescence activity was evaluated weekly. (C) Endpoint tumor volumes of [MUT], SKOV3Luc, and SKOV3CRLuc xenografts treated with the indicated drug or drug combination. Student's t-test. (D) Representative bioluminescence images of tumor burden in SKOV3CRLuc-innoculated mice treated with indicated drug. Images captured by the IVIS Spectrum at day 35. […] In vivo bioluminescence images were taken at the same time using the IVIS Spectrum. […] We tested the anti-tumor potency of [MUT]",
  "data": [
    {"smiles": "N.N.O=C([O-])C1(C(=O)[O-])CCC1.[Pt+2]", "note": "[carboplatin]", "values": [
      {"measurement": "anti-tumor potency (tumor growth)", "value": "relatively ineffective"}
    ]}
  ]
}
